Reference: patent US20040002052A1, “Systems and methods for rapid evaluation and design of molecules for predicted biological activity” (priority 2001, published 2004)
Entries after “also recorded” stand apart in the source; their conditions may differ.

Columns and labels:
[1] = tested on: estrogenic activity; assay: uterotrophic assays (estrogenic bioactivity); type: in vivo; conditions: compared with estradiol
[2] = tested on: estrogenic activity; conditions: Medicinal Chemistry Research 10:440-455, 2001; cited from earlier work

## CO[C@H]1C[C@]2(C)[C@@H](O)CC[C@H]2[C@H]2[C@H]1c1ccc(O)cc1C[C@H]2C [PDC-7, 11β-Methoxy-7α-Methylestradiol]
[1]
  biological potency in uterotrophic assays / estrogenic activity: improved biological potency over estradiol; also recorded: potent estrogenic activity
[2]
  estrogenic bioactivity compared with estradiol: greater estrogenic bioactivity than estradiol
